Results reported in patent publication US20100119479A1, “THERAPEUTIC ANTIVIRAL PEPTIDES” (INTERMUNE, INC., priority 2008, published 2010).

What was measured:
[1] = test system: HCV sub-genomic replicon, GS4.3 (HuH-7 hepatoma cells); assay: Quantitation by ELISA of NPTII in the HCV sub-genomic replicon, GS4.3; type: cell-based; conditions: Hepatitis C virus, GS4.3 replicon cells, 72 h incubation
From the text: Quantitation by ELISA of the Selectable Marker Protein, Neomycin Phosphotransferase II (NPTII) in the HCV Sub-Genomic Replicon, GS4.3
The HCV sub-genomic replicon (1377/NS3-3′, accession No. AJ242652), stably maintained in HuH-7 hepatoma cells, was created by Lohmann et al. Science 285: 110-113 (1999). The replicon-containing cell culture, designated GS4.3, was obtained from Dr. Christoph Seeger of the Institute for Cancer Research, Fox Chase Cancer Center, Philadelphia, Pa.
GS4.3 cells were maintained at 37° C., 5% CO2, in DMEM (Gibco 11965-092) supplemented with L-glutamine 200 mM (100×) (Gibco25030-081), non-essential amino acids (NEAA)(Biowhittaker 13-114E), heat-inactivated (HI) Fetal Bovine Serum(FBS)(Hyclone SH3007.03) and 750 μg/mL geneticin (G418)(Gibco 10131-035). Cells were sub-divided 1:3 or 4 every 2-3 days.
24 h prior to the assay, GS4.3 cells were collected, counted, and plated in 96-well plates (Costar 3585) at 7500 cells/well in […] standard maintenance medium (above) and incubated in the conditions above. To initiate the assay, culture medium was removed, cells were washed once with PBS (Gibco 10010-023) and 90 μl Assay Medium (DMEM, L-glutamine, NEAA, 10% HI FBS, no G418) was added. Inhibitors were made as a 10× stock in Assay Medium, (3-fold dilutions from 10 μM to […] final concentration, final DMSO concentration 1%), […] were added to duplicate wells, plates were rocked to mix, and incubated as above for 72 h.
An NPTII Elisa kit was obtained from AGDIA, Inc. (Compound direct ELISA test system for Neomycin Phosphotransferase II, PSP 73000/4800). Manufacturer's instructions were followed, with some modifications. 10×PEB-1 lysis buffer was made up to include 500 μM PMSF (Sigma P7626, 50 mM stock in isopropanol). After 72 h incubation, cells were washed once with PBS and […] PEB-1 with PMSF was added per well. Plates were agitated vigorously for 15 minutes, room temperature, then frozen at −70° C. Plates were thawed, lysates were mixed thoroughly, and 100 μl were applied to an NPTII Elisa plate. A standard curve was made. Lysate from DMSO-treated control cells was pooled, serially diluted with PEB-1 with PMSF, and applied to duplicate wells of the ELISA plate, in a range of initial lysate amount of 150 μL-2.5 μL. In addition, 100 μL buffer alone was applied in duplicate as a blank. Plates were sealed and gently agitated at room temperature for 2 h. Following capture incubation, the plates were washed 5×300 μL with PBS-T (0.5% Tween-20, PBS-T was supplied in the ELISA kit). For detection, a 1× dilution of enzyme conjugate diluent MRS-2 (5×) was made in PBS-T, into which 1:100 dilutions of enzyme conjugates A and B were added, as per instructions. Plates were resealed, and incubated with agitation, covered, room temperature, for 2 h. The washing was then repeated and 100 μL, of room temperature TMB substrate was added. After approximately 30 minutes incubation (room temperature, agitation, covered), the reaction was stopped with 50 μL, 3M sulfuric acid. Plates were read at 450 nm on a Molecular Devices Versamax plate reader.
Inhibitor effect was expressed as a percentage of DMSO-treated control signal, and inhibition curves were calculated using a 4-parameter equation: y=A+((B−A)/(1+((C/x)̂D))), where C is half-maximal activity or EC50.

[2] = molecular target: T1, full-length NS3/NS4A-2 (HCV NS3 protease) (Hepatitis C virus genotype 1b, UniProt Q9WMX2); assay: NS3 Inhibition Assay (NS3-NS4 protease assay, RETS1 substrate); type: biochemical; conditions: NS3/NS4A-2 protease
T1 construct: Recombinant E. coli or Baculovirus full-length NS3; host or cells: E. coli or baculovirus (BV) expression
Method: NS3 Complex Formation with NS4A-2.
Recombinant E. coli or Baculovirus full-length NS3 was diluted to 3.33 μM with assay buffer and transferred material to an eppendorf tube and placed in a water bath in a 4° C. refrigerator. The appropriate amount of NS4A-2 diluted to […] in assay buffer was added to equal the volume of NS3 above (conversion factor—3.8 mg/272 μL assay buffer). The material was transferred to an eppendorf tube and placed in water bath in a 4° C. refrigerator.
After equilibration to 4° C., equal volumes of NS3 and NS4A-2 solutions were combined in an eppendorf tube, mix gently with a manual pipettor, and incubate mixture for 15 minutes in the 4° C. water bath. Final concentrations in the mixture are 1.67 μM NS3, 4.15 mM NS4A-2 (2485-fold molar excess NS4A-2).
After 15 minutes at 4° C., the NS3/NS4A-2 eppendorf tube was removed and place it in a room temperature water bath for 10 minutes. NS3/NS4A-2 was aliquoted at appropriate volumes and store at −80° C. (E. coli NS3 run at 2 nM in assay, aliquot at 25 μL. BV NS3 run at 3 nM in assay, aliquot at 30 μL).
Step a. Sample compounds were dissolved to 10 mM in DMSO then diluted to 2.5 mM (1:4) in DMSO. Typically, compounds were added to an assay plate at 2.5 mM concentration, yielding upon dilution a starting concentration of 50 microM in the assay inhibition curve. Compounds were serial diluted in assay buffer to provide test solutions at lower concentrations.
Step b. The E. coli. NS3/NS4A-2 was diluted to 4 nM NS3 (1:417.5 of 1.67 μM stock−18 μL1.67 μM stock+7497 μL assay buffer). The BV NS3/NS4A-2 was diluted to 6 nM NS3 (1:278.3 of 1.67 μM stock−24 μL1.67 μM stock+6655 μL assay buffer).
Step c. Using the manual multichannel pipettor, and being careful not to introduce bubbles into the plate, 50 μL assay buffer were added to wells A01-H01 of a black Costar 96-well polypropylene storage plate.
Step d. Using the manual multichannel pipettor, and being careful not to introduce bubbles into the plate, 50 μL of diluted NS3/NS4A-2 from Step b were added to wells A02-H12 of the plate in Step c.
Step e. Using the manual multichannel pipettor, and being careful not to introduce bubbles into the plate, 25 μL of the wells in drug dilution plate in Step a were transferred to corresponding wells in assay plate in Step d. The tips on the multichannel pipettor were changed for each row of compounds transferred.
Step f Using the manual multichannel pipettor, and being careful not to introduce bubbles into the plate, the contentes of the wells from the assay plate in Step e were mixed by aspirating and dispensing 35 μL of the 75 μL in each well five times. The tips on multichannel pipettor were changed for each row of wells mixed.
Step g. The plate was covered with a polystyrene plate lid, and the plate from Step f containing NS3 protease and sample compounds was pre-incubated 10 minutes at room temperature.
While plate from Step g is pre-incubating, the RETS1 substrate was diluted in a 15 mL polypropylene centrifuge tube. The RETS1 substrate was diluted to 8 μM (1:80.75 of 646 μM stock—65 μL 646 μM stock+5184 μL assay buffer).
After the plate in Step g was done pre-incubating, and using the manual multichannel, 25 μL of substrate were added to all wells on the plate. The contents of the wells of the plate were quickly mixed, as in Step f, mixing 65 μL of the 100 μL in the wells.
The plate was read in kinetic mode on the Molecular Devices SpectraMax Gemini XS plate reader. Reader settings: Read time: 30 minutes, Interval: 36 seconds, Reads: 51, Excitation λ: 335 nm, Emission λ: 495 nm, cutoff: 475 nm, Automix: off, Calibrate: once, PMT: high, Reads/well: 6, Vmax pts: 21 or 28/51 depending on length of linearity of reaction
IC50s are determined using a four parameter curve fit equation, and converted to Ki's using the following Km's: […]
Full-length E. coli NS3−2.03 μM
Full-length BV NS3−1.74 μM
where Ki=IC50/(1+[S]/Km))

T1 sequence (Q9WMX2 1027-1657): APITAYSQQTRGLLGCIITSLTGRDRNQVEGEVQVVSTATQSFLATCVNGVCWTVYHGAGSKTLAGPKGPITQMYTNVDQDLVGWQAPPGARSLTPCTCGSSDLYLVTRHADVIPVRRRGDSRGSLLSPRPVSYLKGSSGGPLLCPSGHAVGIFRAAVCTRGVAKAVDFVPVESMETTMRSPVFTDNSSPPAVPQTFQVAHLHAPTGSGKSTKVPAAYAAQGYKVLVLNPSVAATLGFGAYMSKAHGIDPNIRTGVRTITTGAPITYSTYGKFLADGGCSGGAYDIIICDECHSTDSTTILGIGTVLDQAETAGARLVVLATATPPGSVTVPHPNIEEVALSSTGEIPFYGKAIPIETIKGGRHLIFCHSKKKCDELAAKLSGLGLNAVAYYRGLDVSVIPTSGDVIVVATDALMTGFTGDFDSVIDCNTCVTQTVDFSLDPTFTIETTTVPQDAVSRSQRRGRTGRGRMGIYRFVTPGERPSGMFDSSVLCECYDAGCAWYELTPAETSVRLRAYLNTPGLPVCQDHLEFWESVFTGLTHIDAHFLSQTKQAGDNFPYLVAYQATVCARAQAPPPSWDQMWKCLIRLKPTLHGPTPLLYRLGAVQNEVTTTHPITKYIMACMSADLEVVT
T1 sequence (Q9WMX2 1658-1711): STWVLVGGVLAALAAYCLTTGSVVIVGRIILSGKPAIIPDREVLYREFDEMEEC

Row | SMILES | EC50 [1] | IC50 [2]
1 | C=C[C@@H]1C[C@]1(NC(=O)[C@@H]1C[C@@H](Oc2cc(-c3nc(C(C)C)cs3)nc3c(C)c(OC)ccc23)CN1C(=O)[C@@H](Nc1cc(Cl)cc(C(F)(F)F)c1)C(C)(C)C)C(=O)NS(=O)(=O)C1(C)CC1 [Compound 403] | < 0.1 µM | < 0.1 µM
2 | CC[C@@H]1C[C@]1(NC(=O)[C@@H]1C[C@@H](OC(=O)N2Cc3cccc(F)c3C2)CN1C(=O)[C@@H](Nc1cccc(C(=O)O)c1)C(C)(C)C)C(=O)NS(=O)(=O)C1CC1 [Compound 5] | > 1 µM | < 0.1 µM
3 | C=C[C@@H]1C[C@]1(NC(=O)[C@@H]1C[C@@H](Oc2cc(-c3ccccc3)nc3cc(OC)ccc23)CN1C(=O)[C@@H](Nc1cc(F)cc(C(F)(F)F)c1)C(C)(C)C)C(=O)NS(=O)(=O)C1(C)CC1 [Compound 281] | < 0.1 µM | < 0.1 µM
4 | C=C[C@@H]1C[C@]1(NC(=O)[C@@H]1Cc2cc(Oc3cccc(Cl)c3)ccc2CN1C(=O)[C@@H](Nc1cccc(C(F)(F)F)c1)C(C)(C)C)C(=O)NS(=O)(=O)C1CC1 [Compound 23] | > 1 µM | < 0.1 µM
5 | CC[C@@H]1C[C@]1(NC(=O)[C@@H]1C[C@@H](OC(=O)N2Cc3cccc(F)c3C2)CN1C(=O)[C@@H](Nc1ccc(F)c(C#N)c1)C(C)(C)C)C(=O)NS(=O)(=O)C1CC1 [Compound 15] | 0.1 to 1 µM | < 0.1 µM
6 | CC(C)(C)[C@H](Nc1cccc(C(F)(F)F)c1)C(=O)N1C[C@H](OC(=O)N2Cc3cccc(Cl)c3C2)C[C@H]1C(=O)N[C@]1(C(=O)NS(=O)(=O)C2CC2)C[C@H]1C1CC1 [Compound 293] | < 0.1 µM | < 0.1 µM
7 | CC[C@@H]1C[C@]1(NC(=O)[C@@H]1C[C@@H](Oc2nc3ccccc3n2CC)CN1C(=O)[C@@H](Nc1cccc(C(F)(F)F)c1)C(C)(C)C)C(=O)NS(=O)(=O)C1(C)CC1 [Compound 232] | < 0.1 µM | < 0.1 µM
8 | CC[C@@H]1C[C@]1(NC(=O)[C@@H]1C[C@@H](OC(=O)N2Cc3cccc(F)c3C2)CN1C(=O)[C@@H](Nc1cccc(C(F)(F)F)c1)C(C)(C)C)C(=O)NS(=O)(=O)C1(C)CC1 [Compound 290] | < 0.1 µM | < 0.1 µM
9 | C=C[C@@H]1C[C@]1(NC(=O)[C@@H]1C[C@@H](Oc2cc(-c3nc(C(C)C)cs3)nc3c(C)c(OC)ccc23)CN1C(=O)[C@@H](Nc1ccc(F)c(C(F)(F)F)c1)C(C)(C)C)C(=O)NS(=O)(=O)C1(C)CC1 [Compound 305] | < 0.1 µM | < 0.1 µM
10 | CC[C@@H]1C[C@]1(NC(=O)[C@@H]1C[C@@H](OC(=O)N2Cc3cccc(F)c3C2)CN1C(=O)[C@@H](Nc1cccc(COCC2(C)COC2)c1)C(C)(C)C)C(=O)NS(=O)(=O)C1CC1 [Compound 14] | 0.1 to 1 µM | < 0.1 µM
11 | CC[C@@H]1C[C@]1(NC(=O)[C@@H]1C[C@@H](Oc2cc(-c3nc(C(C)C)cs3)nc3c(C)c(OC)ccc23)CN1C(=O)[C@@H](Nc1ccccc1)C(C)(C)C)C(=O)NS(=O)(=O)C1CC1 [Compound 352] | < 0.1 µM | < 0.1 µM
12 | CC[C@@H]1C[C@]1(NC(=O)[C@@H]1C[C@@H](Oc2cc(-c3ccccc3)nc3cc(OC)ccc23)CN1C(=O)[C@@H](Nc1cccc(C(F)(F)F)c1)C(C)(C)C)C(=O)NS(=O)(=O)C1(C)CC1 [Compound 230] | < 0.1 µM | < 0.1 µM
13 | CC[C@@H]1C[C@]1(NC(=O)[C@@H]1C[C@@H](Oc2cc(-c3nc(C(C)C)cs3)nc3c(C)c(OC)ccc23)CN1C(=O)[C@@H](Nc1ccc(F)c(C(F)(F)F)c1)C(C)(C)C)C(=O)NS(=O)(=O)N(C)C [Compound 309] | < 0.1 µM | < 0.1 µM
14 | C=C[C@@H]1C[C@]1(NC(=O)[C@@H]1C[C@@H](Oc2cc(-c3nc(C(C)C)cs3)nc3c(C)c(OC)ccc23)CN1C(=O)[C@@H](Nc1cc(C)cc(C(F)(F)F)c1)C(C)(C)C)C(=O)NS(=O)(=O)C1(C)CC1 [Compound 402] | < 0.1 µM | < 0.1 µM
15 | CC(C)(C)[C@H](Nc1cc(F)cc(C(F)(F)F)c1)C(=O)N1C[C@H](OC(=O)N2Cc3cccc(Cl)c3C2)C[C@H]1C(=O)N[C@]1(C(=O)NS(=O)(=O)C2(C)CC2)C[C@H]1C1CC1 [Compound 298] | < 0.1 µM | < 0.1 µM
16 | C=C[C@@H]1C[C@]1(NC(=O)[C@@H]1C[C@@H](Oc2cc(-c3nc(C(C)C)cs3)nc3c(C)c(OC)ccc23)CN1C(=O)[C@@H](Nc1cc(F)cc(C(F)(F)F)c1)C(C)(C)C)C(=O)NS(=O)(=O)C1(C)CC1 [Compound 334] | < 0.1 µM | < 0.1 µM
17 | C=C[C@@H]1C[C@]1(NC(=O)[C@@H]1C[C@@H](Oc2cc(-c3nc(C(C)C)cs3)nc3c(C)c(OC)ccc23)CN1C(=O)[C@@H](Nc1ccccc1)C(C)(C)C)C(=O)NS(=O)(=O)C1CC1 [Compound 353] | < 0.1 µM | < 0.1 µM
